Tests used:
Amblyomma americanum = assay: Pen study: FDF efficacy against Amblyomma americanum parasitizing white-tailed deer (tick capsules, 8-day post-attachment); assay type: in vivo; details: Cp 13.5 ppb; the tick was A. americanum
I. scapularis larvae [1] = details: larvae parasitizing P. leucopus; Poché et al. 2021; cited from earlier work
I. scapularis larvae [2] = details: larvae parasitizing Peromyscus maniculatus; Pelletier et al. 2020; cited from earlier work

| Structure (SMILES) | live female ticks collected in total from a deer having Cp at 13.5 ppb (Amblyomma americanum) | Cp determined to control 100% I. scapularis larvae (I. scapularis larvae [1]) | concentration in plasma required to control 94% I. scapularis larvae (I. scapularis larvae [2]) | concentration in plasma required to control 97% I. scapularis larvae (I. scapularis larvae [2]) |
| --- | --- | --- | --- | --- |
| N#Cc1nn(-c2c(Cl)cc(C(F)(F)F)cc2Cl)c(N)c1S(=O)(=O)C(F)(F)F [fipronil sulfone] | one | ≥ 8.8 ppb | – | – |
| Cc1cc(C2=NOC(c3cc(Cl)cc(Cl)c3)(C(F)(F)F)C2)ccc1C(=O)NCC(=O)NCC(F)(F)F (stereo not shown) [fluralaner] | – | – | 4000 ppb | 13000 ppb |

Reference: patent US20250312311A1, “Low Dose Fipronil Deer Feed” (priority 2024, published 2025)
